Source: article PMC3816703, “Toxicity Studies on Novel N-Substituted Bicyclo-Heptan-2-Amines at NMDA Receptors” (Pharmaceuticals, 2013)
Read-outs that look alike come from different tables or passages of the source.

Key:
N2a cells = test: MTT cell viability assay on N2a cells (24 h treatment); assay type: cell-based, Mouse; conditions: Mus musculus, read-out: MTT test (IC50)
Procedure: (§1) To examine neuronal cell toxicity, N2a cells were exposed to each of compounds 5a–f or memantine for 24 h at 0–500 µM concentrations, and cell viability was measured by MTT assay. In the present experiments, increasing the concentration of antagonists increased the toxicity of both test compounds and memantine in dose dependent manner (Figure 4A,B). […] No significant reduction in cell concentration was observed using phase contrast microscopy (Figure 5). The mean percentage of viable cells was 94.6 ± 0.29 (p > 0.05), 91.6 ± 0.26 (p > 0.05) for memantine and 93 ± 0.35 (p > 0.05), 77 ± 0.35 (p > 0.05) for compound 5a at 10 and 50 µM, respectively, as compared to untreated cells.
(§2) Mouse Neuro-2a (CCL-131, ATCC, Manassas, VA, USA) and MDCK (CCL-34, ATCC) were used in this study. The cells were routinely propagated using Dulbecco’s Modification of Eagle’s Medium (DMEM, ATCC) for N2a and Eagle’s Minimum Essential Medium (EMEM, ATCC) for MDCK cells, supplemented with 10% fetal bovine serum (FBS, ATCC) and 1% penicillin/ streptomycin (Gibco, Grand Island, NY, USA) in 100 cm^2 Petri-dishes (Corning, Tewksbury, MA, USA) at 37 °C in 5% CO2. For neuronal differentiation, N2a cells were cultivated in DMEM supplemented with 2% FBS in the presence of 20 µM retinoic acid (RA, Sigma, St. Louis, MO, USA).
(§3) All six compounds 5a–f were obtained as salts. Stock solutions (1 mM) were prepared in double distilled water. The treatment concentrations for the compounds and for memantine (Sigma) were 10, 50, 100, 200, 300, and 500 μM. Cells were allowed to attach overnight prior to treatment. H2O2 served as positive control. Working concentrations were prepared immediately prior to treatment by dilution with medium.
(§4) The MTT (3-(4,5-dimethylthiazole-2-yl)-2,5-diphenyltetrazolium bromide) assay is a well-documented and widely-used cell viability assay. MTT is incorporated into the cell by endocytosis and is reduced by mitochondrial enzymes in living cells to a blue colored formazan precipitate. The absorbance of dissolved formazan in the visible region correlates with the number of intact alive cells. Cells were plated at a concentration of 13,000 to 20,000 cells/well on a 96-well round-bottom plate (Fisher, Pittsburgh, PA, USA). The MTT assay (ATCC, 30-1010K) was performed according to the manufacturer’s instructions. The following determinants were optimized for each cell line: plating cell concentration; incubation time with MTT reagent, and incubation time with detergent reagent. Absorbance was recorded at 570 nm by a microtiter plate reader (VICTOR, PerkinElmer, Waltham, MA, USA). The number of surviving cells is directly proportional to the level of the formazan product generated. Each experiment was repeated on three separate occasions and results are presented as the mean absorbance ± S.E.M.
(§5) The Student’s t test was applied to evaluate the significance of differences among each group. A p value of 0.05 or less was considered to be significant. Error bars in the graphs are expressed as S.E.M. with experiments performed in triplicate. IC50 values were calculated according to the SoftMax Pro GxP analytical software. Standard Curves were plotted using the OD Mean Value (Y) versus Concentration (X) and applying a 4-Parameter fit with a variable weight source curve fit option of 1/Y^2. Results are presented as mean ± S.E.M.

MDCK cells = test: MTT cell viability assay on MDCK cells (24 h treatment); assay type: cell-based, Canine; conditions: for IC50: Canis lupus familiaris, read-out: MTT test (IC50)
Procedure: (§6) MDCK cells were used to simulate toxicities of the novel NMDA receptor uncompetitive antagonists 5a–f on BBB in vitro [18, 19]. We treated cells with 0–500 µM concentrations of test compound or memantine for 24 h. Cell viability was assessed by the capacity of cells to reduce the MTT dye (Figure 2A,B). […] It is known, that under therapeutic conditions in patients, the serum level of memantine is about 1 µM [20]. Since the binding potencies of some of the target compounds are in same range (micromolar) as that of memantine, the 1 µM concentration was used as reference in estimating possible therapeutic indexes. […] The mean percentage of viable cells was 101 ± 0.24 (p > 0.05), 95.6 ± 0.25 (p > 0.05) for memantine and 104 ± 0.11 (p > 0.05), 105 ± 0.06 (p > 0.05) for compound 5a at 10 and 50 µM, respectively, as compared to untreated cells.
as §2, §3, §4, §5

[1] = MTT cell viability assay on N2a cells (24 h treatment); assay type: cell-based, Mouse; conditions: mouse, N2a cells, 24 h, as compared to untreated cells, read-out: mean percentage of viable cells
Procedure: as §1, §2, §3, §4, §5

[2] = MTT cell viability assay on MDCK cells (24 h treatment); assay type: cell-based, Canine; conditions: dog, MDCK cells, 24 h, as compared to untreated cells, read-out: mean percentage of viable cells
Procedure: as §6, §2, §3, §4, §5

NMDA receptor = tested on: NMDA receptor; design: method as in PMID 21496213; conditions: among compounds 5a–f; cited from earlier work
[3] = tested on: MES (maximal electroshock)-induced neural damage; design: method as in PMID 21496213; conditions: rodents; among compounds 5a–f; cited from earlier work
[4] = patients; cited from earlier work
[5] = N2a cells, 24 h treatment, mean n = 3, concentration yielding 50% inhibition of mitochondrial enzyme activity

Structure (SMILES)	IC50 (N2a cells; N2a, 24 h)	IC50 (MDCK cells; MDCK, 24 h)	IC50 (N2a cells; [5])	also measured
c1ccc(C2(NCCN3CCCC3)CC3CCC2C3)cc1 (centres unmarked) [5e, 2-phenyl-N-(2-(pyrrolidin-1-yl)ethyl) bicyclo[2.2.1]heptan-2-amine]	165 µM	313 µM		
Fc1ccc(C2(NCCN3CCOCC3)CC3CCC2C3)cc1 (centres unmarked) [5d, 2-(4-fluorophenyl)-N-(2-morpholino-ethyl)bicyclo [2.2.1]heptan-2-amine]		> 1000 µM	> 1000 µM	
c1ccc(C2(NCCN3CCOCC3)CC3CCC2C3)cc1 (centres unmarked) [5c, N-(2-morpholinoethyl)-2-phenylbicyclo [2.2.1]heptan-2-amine]	253 µM	424 µM		
Fc1ccc(C2(NCCN3CCCCC3)CC3CCC2C3)cc1 (centres unmarked) [5b]	291 µM	201 µM		
c1ccc(C2(NCCN3CCCCC3)CC3CCC2C3)cc1 (centres unmarked) [5a, 2-phenyl-N-(2-(piperidin-1-yl)ethyl)bicyclo[2.2.1]heptan-2-amine]	154 µM	155 µM		viability at 24 h, 10 µM [1]: 93 ± 0.35%; viability at 24 h, 50 µM [1]: 77 ± 0.35%; viability at 24 h, 10 µM [2]: 104 ± 0.11%; viability at 24 h, 50 µM [2]: 105 ± 0.06%; affinity for NMDA receptor (NMDA receptor): highest affinity; protection from MES (maximal electroshock)-induced neural damage [3]: greatest degree of protection
CC12CC3CC(C)(C1)CC(N)(C3)C2 [memantine, 1-amino-3,5-dimethyladamantine, reference compound]			219 µM	viability at 24 h, 10 µM [1]: 94.6 ± 0.29%; viability at 24 h, 50 µM [1]: 91.6 ± 0.26%; IC50 (MDCK cells; MDCK cells, 24 h treatment, mean n = 3, concentration yielding 50% inhibition of mitochondrial enzyme activity): 197 µM; concentration above which a concentration dependent decline in numbers of viable cells occurs (MDCK cells; MDCK cells, 0–500 µM, 24 h, MTT): higher than 100 µM; viability at 24 h, 10 µM [2]: 101 ± 0.24%; viability at 24 h, 50 µM [2]: 95.6 ± 0.25%; serum level under therapeutic conditions [4]: about 1 µM
Fc1ccc(C2(NCCN3CCCC3)CC3CCC2C3)cc1 (centres unmarked) [5f]		305 µM	71 µM	
